Read-outs that look alike come from different tables or passages of the source.
Tests used:
[1] = target: T1, human α4β7 integrin (Homo sapiens, UniProt P13612+P26010); experiment: α4β7-K562 Cell Adhesion Assay (α4β7 Mediated Adhesion/MAdCAM-1); assay type: cell-based
T1 construct: expressed in transfected cells; host or cells: K562 cells, stably transfected
T1 sequence (P13612 34-1032): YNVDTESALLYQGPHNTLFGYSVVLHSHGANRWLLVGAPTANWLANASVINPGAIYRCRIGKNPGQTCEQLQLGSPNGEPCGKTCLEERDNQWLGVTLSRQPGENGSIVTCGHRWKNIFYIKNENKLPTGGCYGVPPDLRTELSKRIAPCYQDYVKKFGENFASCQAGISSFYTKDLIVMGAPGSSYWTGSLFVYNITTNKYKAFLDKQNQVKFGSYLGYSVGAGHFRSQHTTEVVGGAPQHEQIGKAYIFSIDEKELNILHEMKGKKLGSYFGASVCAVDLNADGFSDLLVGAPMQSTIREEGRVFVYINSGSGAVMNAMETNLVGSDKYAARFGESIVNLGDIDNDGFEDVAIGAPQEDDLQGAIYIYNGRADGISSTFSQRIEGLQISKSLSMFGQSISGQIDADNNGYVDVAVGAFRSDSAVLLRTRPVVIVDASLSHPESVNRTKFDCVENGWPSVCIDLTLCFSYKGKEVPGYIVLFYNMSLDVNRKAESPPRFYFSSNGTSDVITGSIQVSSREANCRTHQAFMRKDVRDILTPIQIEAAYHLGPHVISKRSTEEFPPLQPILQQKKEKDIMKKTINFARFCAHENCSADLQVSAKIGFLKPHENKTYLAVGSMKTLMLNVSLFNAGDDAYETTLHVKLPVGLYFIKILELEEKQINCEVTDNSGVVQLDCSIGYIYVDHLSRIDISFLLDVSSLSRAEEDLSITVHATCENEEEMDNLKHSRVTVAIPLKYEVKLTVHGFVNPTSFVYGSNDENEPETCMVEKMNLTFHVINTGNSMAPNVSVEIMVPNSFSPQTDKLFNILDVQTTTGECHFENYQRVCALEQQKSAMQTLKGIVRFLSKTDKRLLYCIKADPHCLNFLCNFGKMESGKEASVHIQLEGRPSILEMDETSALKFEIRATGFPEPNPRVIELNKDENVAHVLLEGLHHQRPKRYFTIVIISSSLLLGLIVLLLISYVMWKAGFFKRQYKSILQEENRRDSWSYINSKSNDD
T1 sequence (P26010 20-798): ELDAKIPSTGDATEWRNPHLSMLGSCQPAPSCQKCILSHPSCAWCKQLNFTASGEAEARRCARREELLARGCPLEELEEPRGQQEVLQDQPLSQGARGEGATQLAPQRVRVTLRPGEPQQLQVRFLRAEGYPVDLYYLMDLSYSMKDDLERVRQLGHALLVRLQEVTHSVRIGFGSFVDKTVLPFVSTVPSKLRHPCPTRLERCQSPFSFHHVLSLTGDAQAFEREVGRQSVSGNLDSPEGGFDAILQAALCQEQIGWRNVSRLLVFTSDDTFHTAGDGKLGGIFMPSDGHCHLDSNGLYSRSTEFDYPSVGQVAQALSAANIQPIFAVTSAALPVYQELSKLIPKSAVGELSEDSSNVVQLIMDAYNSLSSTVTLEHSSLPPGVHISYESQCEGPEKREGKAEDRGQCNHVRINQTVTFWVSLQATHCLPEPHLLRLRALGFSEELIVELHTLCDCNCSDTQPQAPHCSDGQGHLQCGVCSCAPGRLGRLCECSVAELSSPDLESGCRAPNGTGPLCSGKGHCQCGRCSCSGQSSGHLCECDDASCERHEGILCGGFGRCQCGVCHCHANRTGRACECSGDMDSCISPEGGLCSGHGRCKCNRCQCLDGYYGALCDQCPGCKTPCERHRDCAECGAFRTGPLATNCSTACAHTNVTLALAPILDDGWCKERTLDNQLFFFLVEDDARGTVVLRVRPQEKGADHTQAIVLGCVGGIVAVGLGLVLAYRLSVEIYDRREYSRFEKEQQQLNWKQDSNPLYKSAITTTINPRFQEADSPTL
Procedure: α4β7-K562 Cell Adhesion Assay (α4β7 Mediated Adhesion/MAdCAM-1)
M2 anti-FLAG antibody coated 96-well plates (Sigma) were coated for 1 hour at 4° C. with 2-8 μl/well recombinant FLAG-hMAdCAM-1 contained in 100 μL of Dulbecco's PBS, pH 7.4, with 1% BSA and 1 mM Mn^2+ (PBS-BSA-Mn). Plates were washed once with PBS-BSA-Mn. Buffer was removed and compounds to be tested (50 μL) were added at 2 times concentration. Stably transfected K562 cells expressing human α4β7 integrin, (50 μL at 2×10^6/mL) that had been labeled with 100 μg/mL carboxymethyl fluorescein diacetate succinimidyl ester (CFDA-SE; Molecular Probes) for 15 min at 37° C. were added to each well and allowed to adhere for 1 h at room temperature. Plates were washed 4 times in PBS-BSA-Mn and then cells were lysed for 2 minutes by addition of 100 μL of PBS without Ca, Mg supplemented with 0.1 M NaOH. The plate was read on a 96-well fluorescent plate reader at 485 nm excitation and 530 nm emission.

[2] = target: α4β1 (Homo sapiens, UniProt P05556+P13612); experiment: Ramos Cell Adhesion Assay (α4β1 Mediated Adhesion/VCAM-1); assay type: cell-based; design: Ramos Cell Adhesion Assay (α4β1 Mediated Adhesion/VCAM-1); endogenous in cells; host or cells: Ramos cells
Procedure: Ramos Cell Adhesion Assay (α4β1 Mediated Adhesion/VCAM-1)
Immulon 96 well plates (Dynex) were coated with 100 μL recombinant hVCAM-1 at 4.0 μg/mL in 0.05 M NaCO3 buffer pH 9.0 overnight at 4° C. (R&D Systems). Plates were washed 3 times in PBS with 1% BSA and blocked for 1 h @ room temperature in this buffer. PBS was removed and compounds to be tested (50 μL) were added at 2× concentration. Ramos cells, (50 μL at 2×10^6/mL) labeled with 5 μM Calcein AM (Molecular Probes) for 1 h at 37° C., were added to each well and allowed to adhere for 1 h at room temperature. Plates were washed 3× in PBS+1% BSA and cells were lysed for 15 minutes in 100 μL of 1 M Tris pH 8.0 with 1% SDS. The plate was read at 485 nm excitation and 530 nm emission.

[3] = K562 cells expressing human α4β7 adhering to FLAG-hMAdCAM-1, 1 mM Mn2+, read-out: α4β7, Madcam IC50
[4] = Ramos cells adhering to recombinant hVCAM-1, read-out: α4β1 IC50

α4β1, sequence (P05556 21-798, one chain of several): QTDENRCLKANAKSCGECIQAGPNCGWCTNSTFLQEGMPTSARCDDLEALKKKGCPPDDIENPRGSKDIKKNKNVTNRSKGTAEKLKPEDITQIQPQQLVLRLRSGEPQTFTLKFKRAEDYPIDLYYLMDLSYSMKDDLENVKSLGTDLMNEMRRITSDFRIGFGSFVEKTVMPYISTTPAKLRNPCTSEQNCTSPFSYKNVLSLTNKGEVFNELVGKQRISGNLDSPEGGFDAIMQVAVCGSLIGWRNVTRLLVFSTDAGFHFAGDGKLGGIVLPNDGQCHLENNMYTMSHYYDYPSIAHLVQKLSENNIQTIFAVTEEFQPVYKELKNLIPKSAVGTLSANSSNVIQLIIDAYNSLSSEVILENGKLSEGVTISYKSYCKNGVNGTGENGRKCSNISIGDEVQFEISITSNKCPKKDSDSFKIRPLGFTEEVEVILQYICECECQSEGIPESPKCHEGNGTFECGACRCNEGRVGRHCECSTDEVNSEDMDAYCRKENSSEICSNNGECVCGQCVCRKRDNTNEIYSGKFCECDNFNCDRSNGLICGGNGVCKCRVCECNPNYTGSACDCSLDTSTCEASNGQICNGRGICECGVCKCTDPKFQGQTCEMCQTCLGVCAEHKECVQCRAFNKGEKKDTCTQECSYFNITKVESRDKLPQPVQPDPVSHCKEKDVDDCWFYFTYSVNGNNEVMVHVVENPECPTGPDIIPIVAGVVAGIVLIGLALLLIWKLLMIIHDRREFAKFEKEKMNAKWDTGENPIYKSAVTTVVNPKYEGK

IC50 [1, 3]	IC50 [2, 4]	Structure (SMILES)	IC50 [1]	IC50 [2]
–	–	CN(C)C(=O)Oc1ccc(C[C@H](NC(=O)C2CCCc3nnc(-c4ccccc4)n32)C(=O)O)cc1 (stereo partly drawn) [Cpd 1, 3-(4-Dimethylcarbamoyloxy-phenyl)-2-(S)-[(3-phenyl-5,6,7,8-tetrahydro-[1,2,4]triazolo[4,3-a]pyridine-5-carbonyl)-amino]-propionic acid]	1.22 µM	3.3 µM
–	–	CN(C)C(=O)Oc1ccc(C[C@H](NC(=O)C2CCCc3nnc(Cc4ccccc4)n32)C(=O)O)cc1 (stereo partly drawn) [Cpd 2, 2-(S)-[(3-Benzyl-5,6,7,8-tetrahydro-[1,2,4]triazolo[4,3-a]pyridine-5-carbonyl)-amino]-3-(4-dimethylcarbamoyloxy-phenyl)-propionic acid]	1.66 µM	5.09 µM
–	–	CN(C)C(=O)Oc1ccc(C[C@H](NC(=O)[C@@H]2CCc3nnc(Cc4ccccc4)n32)C(=O)O)cc1 [Cpd 3, 2-(S)-[(3-Benzyl-6,7-dihydro-5H -pyrrolo[2,1-c][1,2,4]triazole-5-(S)-carbonyl)-amino]-3-(4-dimethylcarbamoyloxy-phenyl)-propionic acid]	> 5 µM	4.15 µM
0.29 µM	0.62 µM	O=C(Nc1ccc(C[C@H](NC(=O)[C@@H]2CCc3nnc(Cc4ccccc4)n32)C(=O)O)cc1)c1c(Cl)cccc1Cl [Cpd 4, 2-(S)-[(3-Benzyl-6,7-dihydro-5H-pyrrolo[2,1-c][1,2,4]triazole-5-(S)-carbonyl)-amino]-3-[4-(2,6-dichloro-benzoylamino)-phenyl]-propionic acid]	–	–
> 5 µM	> 5 µM	O=C(Nc1ccc(C[C@H](NC(=O)[C@@H]2CCc3nnc(Cc4ccccc4)n32)C(=O)O)cc1)c1cccc2ccccc12 [Cpd 5, 2-(S)-[(3-Benzyl-6,7-dihydro-5H-pyrrolo[2,1-c][1,2,4]triazole-5-(S)-carbonyl)-amino]-3-{4-[(naphthalene-1-carbonyl)-amino]-phenyl}-propionic acid]	–	–
> 5 µM	> 5 µM	O=C(Nc1ccc(C[C@H](NC(=O)[C@@H]2CCc3nnc(Cc4ccccc4)n32)C(=O)O)cc1)c1ccc2ccccc2c1 [Cpd 6, 2-(S)-[(3-Benzyl-6,7-dihydro-5H-pyrrolo[2,1-c][1,2,4]triazole-5-(S)-carbonyl)-amino]-3-{4-[(naphthalene-2-carbonyl)-amino]-phenyl}-propionic acid]	–	–
> 5 µM	> 5 µM	CCOc1ccc2ccccc2c1C(=O)Nc1ccc(C[C@H](NC(=O)[C@@H]2CCc3nnc(Cc4ccccc4)n32)C(=O)O)cc1 [Cpd 7, 2-(S)-[(3-Benzyl-6,7-dihydro-5H-pyrrolo[2,1-c][1,2,4]triazole-5-(S)-carbonyl)-amino]-3-{4-[(2-ethoxy-naphthalene-1-carbonyl)-amino]-phenyl}-propionic acid]	–	–
0.35 µM	1.56 µM	O=C(Nc1ccc(C[C@H](NC(=O)[C@@H]2CCc3nnc(Cc4ccccc4)n32)C(=O)O)cc1)c1cccc2c1-c1ccccc1C2=O [Cpd 8, 2-(S)-[(3-Benzyl-6,7-dihydro-5H-pyrrolo[2,1-c][1,2,4]triazole-5-(S)-carbonyl)-amino]-3-{4-[(9-oxo-9H-fluorene-4-carbonyl)-amino]-phenyl}-propionic acid]	–	–
0.02 µM	0.08 µM	O=C(Nc1ccc(C[C@H](NC(=O)[C@@H]2CCc3nnc(Cc4ccccc4)n32)C(=O)O)cc1)c1c(Cl)cncc1Cl [Cpd 9, 2-(S)-[(3-Benzyl-6,7-dihydro-5H-pyrrolo[2,1-c][1,2,4]triazole-5-(S)-carbonyl)-amino]-3-{4-[(3,5-dichloro-pyridine-4-carbonyl)-amino]-phenyl}-propionic acid]	–	–
0.08 µM	1.04 µM	CCCc1nnc2n1[C@H](C(=O)N[C@@H](Cc1ccc(NC(=O)c3c(Cl)cccc3Cl)cc1)C(=O)O)CC2 [Cpd 10, 3-[4-(2,6-Dichloro-benzoylamino)-phenyl]-2-(S)-[(3-propyl-6,7-dihydro-5H-pyrrolo[2,1-c][1,2,4]triazole-5-(S)-carbonyl)-amino]-propionic acid]	–	–
0.55 µM	> 5 µM	O=C(NCc1nnc2n1[C@H](C(=O)N[C@@H](Cc1ccc(NC(=O)c3c(Cl)cccc3Cl)cc1)C(=O)O)CC2)OCc1ccccc1 [Cpd 11, 2-(S)-{[3-(Benzyloxycarbonylamino-methyl)-6,7-dihydro-5H-pyrrolo[2,1-c][1,2,4]triazole-5-(S)-carbonyl]-amino}-3-[4-(2,6-dichloro-benzoylamino)-phenyl]-propionic acid]	–	–
0.12 µM	0.38 µM	O=C(Nc1ccc(C[C@H](NC(=O)[C@@H]2CCc3nnc(Cc4ccsc4)n32)C(=O)O)cc1)c1c(Cl)cccc1Cl [Cpd 12, 3-[4-(2,6-Dichloro-benzoylamino)-phenyl]-2-(S)-[(3-thiophen-3-ylmethyl-6,7-dihydro-5H-pyrrolo[2,1-c][1,2,4]triazole-5-(S)-carbonyl)-amino]-propionic acid]	–	–
0.32 µM	1.19 µM	COc1cccc(OC)c1-c1ccc(C[C@H](NC(=O)[C@@H]2CCc3nnc(Cc4ccccc4)n32)C(=O)O)cc1 [Cpd 13, 2-(S)-[(3-Benzyl-6,7-dihydro-5H-pyrrolo[2,1-c][1,2,4]triazole-5-(S)-carbonyl)-amino]-3-(2′,6′-dimethoxy-biphenyl-4-yl)-propionic acid]	–	–
–	> 5 µM	NCc1nnc2n1[C@H](C(=O)N[C@@H](Cc1ccc(NC(=O)c3c(Cl)cccc3Cl)cc1)C(=O)O)CC2 [Cpd 14, 2-(S)-[(3-Aminomethyl-6,7-dihydro-5H-pyrrolo[2,1-c][1,2,4]triazole-5-(S)-carbonyl)-amino]-3-[4-(2,6-dichloro-benzoylamino)-phenyl]-propionic acid]	–	–

Reference: patent US7618983B2, “Bicyclic triazole α4 integrin inhibitors” (Janssen Pharmaceutica, N.V., priority 2004, dated 2009)
